The source of these data is patent publication US9386769B2 (HUNAN RESEARCH INSTITUTE OF CHEMICAL INDUSTRY CO., LTD., priority 2011, dated 2016).

One data set has as its system Botrytis cinerea. The data set can be described thus: Fungicidal activity against Botrytis cinerea, mycelial growth inhibition on PDA plate. The format is cell-based. The settings on record: for activities against Botrytis cinerea (growth inhibition rating) / inhibition at 25 µg/mL: 25 mg/L; for inhibition at 0.1562 µg/mL: 0.1562 mg/L; for inhibition at 0.3125 µg/mL: 0.3125 mg/L; for inhibition at 0.625 µg/mL: 0.625 mg/L; for inhibition at 1.255 µg/mL: 1.255 mg/L; for inhibition at 25 µg/mL: read-out: activities against Botrytis cinerea (growth inhibition rating). As to the method:
(§1) Bioassay method: Stock solution of every test compound was prepared in an appropriate solvent such as N,N-dimethylformamide (DMF), and then diluted to the required test concentrations with sterile water containing 0.1% Tween 80; Pipetted 3 mL of test solution to 27 mL of potato dextrose agar (PDA) medium at 45° C. and poured into a Petri dish to prepare a plate after shaking thoroughly; 6 mm of diameter of fungi cake from the edge of 7-day-old […] colony was inoculated on the central of the plate, wherein mycelium facing down, and cultured in the culture tank at 28° C. The diameter of fungi spread was calculated 4 days later using the control group tested with the diluent only. Test was run 4 times. Data were subjected to EXCEL statistical software analysis and the growth inhibition of the tested compound was calculated according to the corresponding control, the activity was rated on the basis of percentage of growth inhibition using the following rating system: A, inhibition (%)>90; B, 90≧inhibition (%)>70; C, 70≧inhibition (%)>50; D, inhibition (%)≦50.
Fungicidal activities against Botrytis cinerea of compounds represented by the general formula (I) were evaluated with the corresponding method in Example 18, and some of the test results are shown in Table 6 to Table 8.

In another data set the test system is Sclerotinia sclerotiorum. The data set can be described thus: Fungicidal activity against Sclerotinia sclerotiorum, mycelial growth inhibition on PDA plate. The format is cell-based. To be noted: for activities against Sclerotinia sclerotiorum (growth inhibition rating) / inhibition at 25 µg/mL: 25 mg/L; for inhibition at 0.1562 µg/mL / inhibition at 0.3125 µg/mL / inhibition at 0.625 µg/mL / inhibition at 1.255 µg/mL / inhibition at 2.5 µg/mL / inhibition at 5 µg/mL / inhibition at 10 µg/mL / inhibition at 25 µg/mL: Sclerotinia sclerotiorum; for inhibition at 0.1562 µg/mL: 0.1562 mg/L; for inhibition at 0.1562 µg/mL / inhibition at 0.3125 µg/mL / inhibition at 0.625 µg/mL / inhibition at 1.255 µg/mL / inhibition at 2.5 µg/mL / inhibition at 5 µg/mL / inhibition at 10 µg/mL: read-out: activities against Sclerotinia sclerotiorum (growth inhibition); for inhibition at 0.3125 µg/mL: 0.3125 mg/L; for inhibition at 0.625 µg/mL: 0.625 mg/L; for inhibition at 1.255 µg/mL: 1.255 mg/L; for inhibition at 25 µg/mL: read-out: activities against Sclerotinia sclerotiorum (growth inhibition rating). As for the experimental part: as §1

The next data set deals with Alternaria alternata. The data set is described as follows: Fungicidal activity against Alternaria alternata, mycelial growth inhibition on PDA plate. It is filed as cell-based. As for the experimental part:
as §1
Fungicidal activities against Alternaria alternata of compounds represented by the general formula (I) were evaluated with the corresponding method in Example 18, and some of the test results are shown in Table 9 to Table 10.

Another data set concerns Aphis fabae. The data set is described as follows: Insecticidal activity against Aphis fabae, dipping of horsebean seedlings. It is filed as in vivo. The settings on record: 24 h; for mortality at 500 µg/mL: read-out: activities against Aphis fabae (mortality rating). As for the experimental part:
Bioassay method: Stock solution of every test compound was prepared in an appropriate solvent such as N,N-dimethylformamide, and a small amount of Tween 80 was added as emulsification agent, then diluted to the required test concentrations with distilled water, using the control group tested with distilled water only. More than 20 adults of Aphis fabae were transferred to newly unearthed horsebean seedlings and 24 hr later, horsebean seedlings with Aphis fabae were dipped in the test solution for 5 s, then allowed to dry with filter paper, transplanted to the absorbent sponge and covered with a glass tube, then kept in a room for normal cultivation. Each assay contained three replications, and results were averaged. Mortality was assessed 24 hr after the treatment. The activity was rated to A, B, C or D according to the rating system in Example 22.

The mark [1] stands for this setting: read-out: activities against Aphis fabae (mortality).
Where [2] appears, read: Botrytis cinerea, Table 8, read-out: activities against Botrytis cinerea (growth inhibition).
The mark [3] stands for this setting: Botrytis cinerea, 2.5 mg/L, Table 8, read-out: activities against Botrytis cinerea (growth inhibition).
Setting [4] is: Botrytis cinerea, 5 mg/L, Table 8, read-out: activities against Botrytis cinerea (growth inhibition).

The structures appear in SMILES notation. Where two headings read alike, the source gives them in different places.

Consider `CCOc1ccc([N+](=O)[O-])c(N(Cc2cnc(Cl)s2)C(C)C)n1` [Compound 31], for which, in the data set on Botrytis cinerea, the “activities against Botrytis cinerea (growth inhibition rating)” value is on record as “B (B, 90≧inhibition (%)>70)”.
For `CCCN(Cc1cnc(Cl)s1)c1nc(OC)ccc1[N+](=O)[O-]` [Compound 08], in the data set on Sclerotinia sclerotiorum, the “activities against Sclerotinia sclerotiorum (growth inhibition rating)” value is “A (A, inhibition (%)>90)”. For the same molecule, the “activities against Alternaria alternata (growth inhibition)” value in the data set with Alternaria alternata (2.5 mg/L) is given as 45%; with Alternaria alternata (5 mg/L), 48%; in the data set with Alternaria alternata (10 mg/L) it was 60%. Besides, the “activities against Alternaria alternata (growth inhibition rating)” value with Alternaria alternata (25 mg/L) is “C (C, 70≧inhibition (%)>50)”. In addition, the “activities against Botrytis cinerea (growth inhibition)” value with Botrytis cinerea (2.5 mg/L, Table 7) is on record as 68%; in the data set with Botrytis cinerea (5 mg/L, Table 7), 70%; with Botrytis cinerea (10 mg/L, Table 7) it was 70%. Besides, in the data set with Botrytis cinerea, the “activities against Botrytis cinerea (growth inhibition rating)” value is listed as “A (A, inhibition (%)>90)”.
As to `CCCOc1ccc([N+](=O)[O-])c(N(CCC)Cc2cnc(Cl)s2)n1` [Compound 10], in the data set with Sclerotinia sclerotiorum, the “activities against Sclerotinia sclerotiorum (growth inhibition rating)” value was “B (B, 90≧inhibition (%)>70)”. The “activities against Botrytis cinerea (growth inhibition rating)” value with Botrytis cinerea is “B (B, 90≧inhibition (%)>70)”.
As for `CCN(Cc1cnc(Cl)s1)c1nc(Cl)ccc1[N+](=O)[O-]`, the melting point was 71.4 to 74.1 °C.
Still for that read-out and setting: next, `CCN(Cc1cnc(Cl)s1)c1nc(Cl)ccc1Cl`: 95.8 to 96.8 °C.
As for `CCNc1ccc([N+](=O)[O-])c(N(CC)Cc2cnc(Cl)s2)n1` [Compound 24], in the data set with Botrytis cinerea, the “activities against Botrytis cinerea (growth inhibition rating)” value was “B (B, 90≧inhibition (%)>70)”.
With `CCOc1ccc([N+](=O)[O-])c(N(CC)Cc2cnc(Cl)s2)n1` [Compound 04, 6-ethoxy-N-((2-chlorothiazole-5-yl)methyl)-N-ethyl-3-nitropyridine-2-amine], the inhibition at 0.1562 µg/mL in the data set on Sclerotinia sclerotiorum (Table 5) amounted to 53%; in the data set on Botrytis cinerea (setting [2]) it was 63%. Moreover, the inhibition at 0.3125 µg/mL with Sclerotinia sclerotiorum (Table 5) is 59%; with Botrytis cinerea (setting [2]) it was 76%. For the same molecule, the inhibition at 0.625 µg/mL in the data set with Sclerotinia sclerotiorum (Table 5) stood at 61%; in the data set on Botrytis cinerea (setting [2]), 81%. The inhibition at 1.255 µg/mL in the data set on Sclerotinia sclerotiorum (Table 5) worked out at 65%; in the data set with Botrytis cinerea (setting [2]) it was 82%. The inhibition at 2.5 µg/mL turned out to be 75% in the data set with Sclerotinia sclerotiorum (2.5 mg/L, Table 4); 70% in the data set with Sclerotinia sclerotiorum (2.5 mg/L, Table 5); 55% with Alternaria alternata (Alternaria alternata, 2.5 mg/L, read-out: activities against Alternaria alternata (growth inhibition)); 70% with Botrytis cinerea (Botrytis cinerea, 2.5 mg/L, Table 7, read-out: activities against Botrytis cinerea (growth inhibition)); 87% with Botrytis cinerea (setting [3]). The inhibition at 5 µg/mL in the data set on Sclerotinia sclerotiorum (5 mg/L, Table 4) amounted to 90%; in the data set on Sclerotinia sclerotiorum (5 mg/L, Table 5), 75%; in the data set on Alternaria alternata (Alternaria alternata, 5 mg/L, read-out: activities against Alternaria alternata (growth inhibition)), 60%; with Botrytis cinerea (Botrytis cinerea, 5 mg/L, Table 7, read-out: activities against Botrytis cinerea (growth inhibition)) it was 78%; in the data set on Botrytis cinerea (setting [4]) it was 90%. Also, the inhibition at 10 µg/mL in the data set with Sclerotinia sclerotiorum (10 mg/L, Table 4) was found to be 100%; in the data set on Alternaria alternata (Alternaria alternata, 10 mg/L, read-out: activities against Alternaria alternata (growth inhibition)) it was 70%; in the data set with Botrytis cinerea (Botrytis cinerea, 10 mg/L, Table 7, read-out: activities against Botrytis cinerea (growth inhibition)) it was 94%. For the same molecule, the inhibition at 25 µg/mL in the data set on Sclerotinia sclerotiorum was more than 90%; in the data set with Alternaria alternata (Alternaria alternata, 25 mg/L, read-out: activities against Alternaria alternata (growth inhibition rating)) it was 70 to 90%; in the data set with Botrytis cinerea (Botrytis cinerea), more than 90%. In addition, the mortality at 500 µg/mL in the data set on Aphis fabae was more than 90%. Further, in the data set on Aphis fabae (setting [1]), the mortality at 6.25 µg/mL is 0%. Also, in the data set with Aphis fabae (setting [1]), the mortality at 25 µg/mL turned out to be 26.7%. The mortality at 100 µg/mL with Aphis fabae (setting [1]) was 46.7%.
As to `CCN(Cc1sc(C)nc1C)c1nc(OC)ccc1[N+](=O)[O-]` [Compound 44], the “activities against Sclerotinia sclerotiorum (growth inhibition)” value in the data set with Sclerotinia sclerotiorum (2.5 mg/L, Table 4) turned out to be 70%; in the data set on Sclerotinia sclerotiorum (5 mg/L, Table 4), 75%; in the data set with Sclerotinia sclerotiorum (10 mg/L, Table 4) it was 87%. The “activities against Sclerotinia sclerotiorum (growth inhibition rating)” value in the data set on Sclerotinia sclerotiorum was “A (A, inhibition (%)>90)”. Besides, the “activities against Alternaria alternata (growth inhibition rating)” value in the data set on Alternaria alternata (25 mg/L) is recorded as “B (B, 90≧inhibition (%)>70)”. Moreover, in the data set with Botrytis cinerea, the “activities against Botrytis cinerea (growth inhibition rating)” value is on record as “A (A, inhibition (%)>90)”.
For the molecule `COC(=O)NC(=S)Nc1ccccc1NC(=S)NC(=O)OC` [Thiophanate-Methyl, reference compound], the inhibition at 0.1562 µg/mL was 33% with Sclerotinia sclerotiorum (Table 5) and 18% in the data set on Botrytis cinerea (setting [2]). Moreover, the inhibition at 0.3125 µg/mL amounted to 47% in the data set with Sclerotinia sclerotiorum (Table 5) and 75% in the data set with Botrytis cinerea (setting [2]). In addition, the inhibition at 0.625 µg/mL came to 63% with Sclerotinia sclerotiorum (Table 5) and 88% in the data set with Botrytis cinerea (setting [2]). For the same molecule, the inhibition at 1.255 µg/mL in the data set on Sclerotinia sclerotiorum (Table 5) came out at 72%; in the data set with Botrytis cinerea (setting [2]), 93%. Moreover, the inhibition at 2.5 µg/mL with Sclerotinia sclerotiorum (2.5 mg/L, Table 5) is 77%; in the data set with Botrytis cinerea (setting [3]), 98%. Further, the inhibition at 5 µg/mL was determined as 85% in the data set on Sclerotinia sclerotiorum (5 mg/L, Table 5) and 100% in the data set on Botrytis cinerea (setting [4]).
For `CCN(Cc1cnc(Br)s1)c1nc(OC)ccc1[N+](=O)[O-]` [Compound 33, 6-methoxy-N-((2-bromothiazole-5-yl)methyl)-N-ethyl-3-nitropyridine-2-amine], the inhibition at 2.5 µg/mL with Sclerotinia sclerotiorum (2.5 mg/L, Table 4) stood at 91%. For the same molecule, in the data set with Sclerotinia sclerotiorum (5 mg/L, Table 4), the inhibition at 5 µg/mL was found to be 100%. Besides, the inhibition at 10 µg/mL in the data set with Sclerotinia sclerotiorum (10 mg/L, Table 4) came out at 100%. Also, the inhibition at 25 µg/mL in the data set on Sclerotinia sclerotiorum is more than 90%; in the data set with Botrytis cinerea (Botrytis cinerea), 70 to 90%.
`COc1ccc([N+](=O)[O-])c(N(C)Cc2cnc(Cl)s2)n1` [Compound 17]: the “activities against Alternaria alternata (growth inhibition rating)” value in the data set with Alternaria alternata (25 mg/L) is listed as “B (B, 90≧inhibition (%)>70)”.
For the molecule `CCCOc1ccc([N+](=O)[O-])c(N(CC)Cc2cnc(Cl)s2)n1` [Compound 07], the “activities against Sclerotinia sclerotiorum (growth inhibition rating)” value in the data set with Sclerotinia sclerotiorum is reported as “B (B, 90≧inhibition (%)>70)”. Moreover, the “activities against Alternaria alternata (growth inhibition)” value was determined as 20% with Alternaria alternata (2.5 mg/L), 36% with Alternaria alternata (5 mg/L) and 45% with Alternaria alternata (10 mg/L). For the same molecule, the “activities against Alternaria alternata (growth inhibition rating)” value in the data set on Alternaria alternata (25 mg/L) is listed as “C (C, 70≧inhibition (%)>50)”. Besides, the “activities against Botrytis cinerea (growth inhibition)” value in the data set with Botrytis cinerea (2.5 mg/L, Table 7) was 44%; in the data set on Botrytis cinerea (5 mg/L, Table 7), 52%; with Botrytis cinerea (10 mg/L, Table 7), 68%. In the data set with Botrytis cinerea, the “activities against Botrytis cinerea (growth inhibition rating)” value is listed as “B (B, 90≧inhibition (%)>70)”.
`CCCN(Cc1cnc(Cl)s1)c1nc(OCC)ccc1[N+](=O)[O-]` [Compound 09]: the “activities against Sclerotinia sclerotiorum (growth inhibition rating)” value in the data set on Sclerotinia sclerotiorum is on record as “A (A, inhibition (%)>90)”. Also, the “activities against Botrytis cinerea (growth inhibition)” value came to 52% with Botrytis cinerea (2.5 mg/L, Table 7); 65% with Botrytis cinerea (5 mg/L, Table 7); 65% in the data set with Botrytis cinerea (10 mg/L, Table 7). Besides, the “activities against Botrytis cinerea (growth inhibition rating)” value in the data set with Botrytis cinerea is given as “A (A, inhibition (%)>90)”.
As to `COc1nc(NCc2cnc(Cl)s2)ccc1[N+](=O)[O-]` [Compound 47], in the data set with Botrytis cinerea, the “activities against Botrytis cinerea (growth inhibition rating)” value is on record as “C (C, 70≧inhibition (%)>50)”.
Regarding `CCOc1nc(N(CC)Cc2cnc(Cl)s2)ccc1[N+](=O)[O-]` [Compound 45], the mortality at 500 µg/mL with Aphis fabae was 70 to 90%.
